{
  "source": "paper PMC7997574",
  "about": "“Lead Optimization of Benzoxazolone Carboxamides as Orally Bioavailable and CNS Penetrant Acid Ceramidase Inhibitors” (Journal of Medicinal Chemistry, 2020)",
  "key": {"AC": {"target": "T1, AC (Homo sapiens, UniProt Q13510)", "T1 sequence (Q13510 22-395)": "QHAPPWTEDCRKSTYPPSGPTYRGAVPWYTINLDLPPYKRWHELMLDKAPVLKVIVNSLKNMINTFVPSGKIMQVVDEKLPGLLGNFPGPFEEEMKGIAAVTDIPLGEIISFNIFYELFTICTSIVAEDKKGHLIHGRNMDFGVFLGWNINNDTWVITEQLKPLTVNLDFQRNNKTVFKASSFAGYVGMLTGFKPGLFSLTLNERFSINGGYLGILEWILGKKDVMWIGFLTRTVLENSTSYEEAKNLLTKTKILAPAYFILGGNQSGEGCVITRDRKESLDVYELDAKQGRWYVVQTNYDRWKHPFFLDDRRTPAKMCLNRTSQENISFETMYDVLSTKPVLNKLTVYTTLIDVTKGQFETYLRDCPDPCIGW", "test": "Kinetic studies on hAC-enriched lysates (Michaelis–Menten analysis, ki/KI)", "assay_type": "biochemical", "set-up": "expressed in transfected cells", "details": "time-dependent inhibition of hAC", "procedure": "Assay conditions for the kinetic studies were the same as those described for the fluorogenic hAC assay. Enzyme-enriched lysate (2 μg) was incubated with the following concentrations of substrate Rbm14–12: 0.25, 0.5, 1, 2.5, 5, 10, 12.5, and 15 μM. Compound 22m was used at final concentrations of 100 and 400 nM. Initial velocities (V0) were determined and automatically fitted to the Michaelis–Menten equation to obtain the kinetic parameters (KM and Vmax). The graph is representative of two independent experiments, each performed in three technical replicates. Graphs and data analysis were performed using GraphPad Prism 5 software (GraphPad Software Inc., CA, USA).\nhAC activity was measured as a function of reaction time in the presence of different concentrations of 22m. The apparent inactivation rate constant of hAC (kobs) was analyzed by nonlinear square fitting each data set to the pseudo-first-order rate equation Y = vi(1 – exp(−kobst))/kobs. Replotting of calculated kobs vs [22m] was made, and the kinetic parameter ki/KI was calculated by nonlinear square fitting data to the equation Y = kiI/(KI + I). The graphs are representative of two independent experiments, each performed in two technical replicates."}, "[1]": {"test": "In vivo pharmacokinetic study in male CD1 mice", "details": "mouse", "procedure": "Male CD1 mice (22–24 g, 6 weeks old, SLAC Laboratory Animal Co. Ltd.) were group-housed in ventilated cages and had free access to water and food. They were maintained under a […] at controlled temperature and relative humidity. All efforts were made to minimize animal suffering and to use the minimal number of animals required to produce reliable results. All procedures were performed in accordance with the Ethical Guidelines on the Protection of Animals Used for Scientific Purposes at the DMPK Group at Shanghai ChemPartner Co., Ltd. 22m was administrated intravenously (i.v.) at 3 mg kg^–1 (vehicle: 100% saline at 0.6 mg mL^–1) via tail vein injection (N = 18) and via oral administration (p.o.) at 10 mg kg^–1 (vehicle: 100% saline at 2.0 mg mL^–1) by oral gavage (N = 18). Sample collection. Samples were collected at 0.25, 0.5, 1, 4, 8, and 24 h. Animals were sacrificed 24 h after 22m administration; plasma, brain, and CSF samples were collected and stored at −80 °C. Blood collection: The animal was restrained manually, and approximately 150 μL of blood/time point was collected into the K2EDTA tube via retro orbital puncture under anesthesia with isoflurane. The blood sample was put on ice and centrifuged to obtain the plasma sample (2000 × g, 5 min under 4 °C) within 15 min and then acidified following 100 μL of plasma + 1.0 μL of formic acid. An aliquot of 20 μL sample (pretreatment with 1% formic acid) was added with 200 μL of IS (propranolol, 40 ng mL^–1) in MeCN. The mixture was vortexed for 5 min and centrifuged at 6000 rpm for 10 min. The 0.5 μL mixture was injected into LC/MS/MS. Brain collection: Brain was removed and immediately homogenized immediately for 2 min with three volumes (v/w) of homogenizing solution (PBS:formic acid = 100:1), and then the solution was stored in tubes under −70 °C until analysis. An aliquot of 20 μL sample was added with 200 μL of MeCN, which contains IS (propranolol, 40 ng mL^–1) for protein precipitation. The mixture was vortexed for 5 min and centrifuged at 6000 rpm for 10 min. The 0.5 μL mixture was injected into LC/MS/MS. CSF collection: A midline incision was made on the neck. The muscle under the skin was cut to expose the cisterna magna. The CSF was collected by capillary. An aliquot of 3 μL sample was added with 90 μL of IS (propranolol, 40 ng mL^–1) in MeCN:H2O = 2:1 (added 1% formic acid). The mixture was vortexed for 5 min and centrifuged at 6000 rpm for 10 min. The 1.5 μL mixture was injected into LC/MS/MS. 22m sample levels were monitored on an LC/MS/MS-19 (API5500, Qtriple) system, using the calibration curve and […] as internal standard. Chromatography was carried out on a Waters BEH C18 column (2.1 × 50 mm, 1.7 μm) at 60 °C, setting a flow rate of 0.60 mL min^–1. Mobile phases were as follows: A = H2O/0.025% formic acid/1 mM NH4OAc and B = MeOH/0.025% formic acid/1 mM NH4OAc. After the initial 0.20 min at 10% of mobile phase B, the percentage of mobile phase B increased at 70% at 0.50 min, reaching steadily 90% in the range of 0.80–1.30 min. Then the system returned to the initial conditions in a single step until 1.80 min. The following parent (m/z)/daughter (m/z) transitions were monitored: 22m: m/z = 332.20/[…] Da; […] (IS): m/z: 260.30/116.10 Da."}, "[2]": {"details": "plasma, oral bioavailability, 10 mg kg^–1 p.o."}},
  "note": "Where “and” joins values, the source holds several entries; their conditions need not be identical. Equal entries are not always repeated.",
  "data": [
    {"smiles": "CC(C)CNC(=O)n1c(=O)oc2cc(C3CCN(C)CC3)ccc21", "note": "[22m, N-Isobutyl-6-(1-methyl-4-piperidyl)-2-oxo-1,3-benzoxazole-3-carboxamide]", "values": [
      {"measurement": "ki", "setting": "AC", "result": 0.15, "unit": "min^–1"},
      {"measurement": "ki/KI", "setting": "AC", "result": "0.02 μM^–1 min^–1 and 0.02±0.001 μM^–1 min^–1"},
      {"measurement": "AUC at 24 h", "setting": "[1]; iv, CSF, 3 mg kg^–1 i.v.", "result": 77.8, "unit": "ng·h/mL"},
      {"measurement": "Cmax at 24 h", "setting": "[1]; iv, CSF, 3 mg kg^–1 i.v.", "result": 71.6, "unit": "ng/mL"},
      {"measurement": "Tmax", "setting": "[1]; iv, CSF, 3 mg kg^–1 i.v.", "result": 0.25, "unit": "h"},
      {"measurement": "half-life at 24 h", "setting": "[1]; iv, CSF, 3 mg kg^–1 i.v.", "result": 0.661, "unit": "h"},
      {"measurement": "AUC at 24 h", "setting": "[1]; iv, brain, 3 mg kg^–1 i.v.", "result": 10100, "unit": "ng·h/mL"},
      {"measurement": "Cmax at 24 h", "setting": "[1]; iv, brain, 3 mg kg^–1 i.v.", "result": 6440, "unit": "ng/mL"},
      {"measurement": "Tmax", "setting": "[1]; iv, brain, 3 mg kg^–1 i.v.", "result": 0.25, "unit": "h"},
      {"measurement": "half-life at 24 h", "setting": "[1]; iv, brain, 3 mg kg^–1 i.v.", "result": 1.01, "unit": "h"},
      {"measurement": "AUC at 24 h", "setting": "[1]; iv, plasma, 3 mg kg^–1 i.v.", "result": 212, "unit": "ng·h/mL"},
      {"measurement": "half-life", "setting": "[1]; iv, plasma, 3 mg kg^–1 i.v.", "result": 1, "unit": "h"},
      {"measurement": "half-life at 24 h", "setting": "[1]; iv, plasma, 3 mg kg^–1 i.v.", "result": 1.26, "unit": "h"},
      {"measurement": "clearance at 24 h", "setting": "[1]; iv, plasma, 3 mg kg^–1 i.v., read-out: Cl (L h^–1 kg^–1) (converted)", "result": 235, "unit": "mL/min/kg"},
      {"measurement": "Vd at 24 h", "setting": "[1]; iv, plasma, 3 mg kg^–1 i.v., read-out: Vdss (L kg^–1)", "result": 12.5, "unit": "L/kg"},
      {"measurement": "bioavailability", "setting": "[1]; [2]", "result": 58, "unit": "%"},
      {"measurement": "bioavailability at 24 h", "setting": "[1]; [2]", "result": 58.3, "unit": "%"},
      {"measurement": "AUC at 24 h", "setting": "[1]; po, CSF, 10 mg kg^–1 p.o.", "result": 119, "unit": "ng·h/mL"},
      {"measurement": "Cmax at 24 h", "setting": "[1]; po, CSF, 10 mg kg^–1 p.o.", "result": 52.2, "unit": "ng/mL"},
      {"measurement": "Tmax", "setting": "[1]; po, CSF, 10 mg kg^–1 p.o.", "result": 1, "unit": "h"},
      {"measurement": "half-life at 24 h", "setting": "[1]; po, CSF, 10 mg kg^–1 p.o.", "result": 1.23, "unit": "h"},
      {"measurement": "AUC at 24 h", "setting": "[1]; po, brain, 10 mg kg^–1 p.o.", "result": 14600, "unit": "ng·h/mL"},
      {"measurement": "Cmax at 24 h", "setting": "[1]; po, brain, 10 mg kg^–1 p.o.", "result": 6900, "unit": "ng/mL"},
      {"measurement": "Tmax", "setting": "[1]; po, brain, 10 mg kg^–1 p.o.", "result": 1, "unit": "h"},
      {"measurement": "half-life at 24 h", "setting": "[1]; po, brain, 10 mg kg^–1 p.o.", "result": 1.18, "unit": "h"},
      {"measurement": "AUC at 24 h", "setting": "[1]; po, plasma, 10 mg kg^–1 p.o.", "result": 412, "unit": "ng·h/mL"},
      {"measurement": "Cmax at 24 h", "setting": "[1]; po, plasma, 10 mg kg^–1 p.o.", "result": 216, "unit": "ng/mL"},
      {"measurement": "Tmax at 24 h", "setting": "[1]; po, plasma, 10 mg kg^–1 p.o.", "result": 0.5, "unit": "h"},
      {"measurement": "half-life at 24 h", "setting": "[1]; po, plasma, 10 mg kg^–1 p.o.", "result": 1.03, "unit": "h"}
    ]}
  ]
}
